This assay concerns the target T1, KRAS G12C (Homo sapiens, UniProt P01116, G12C).
T1 construct: KRAS G12C (amino acid region: 1-169)
Nature of the assay: Inhibitory activity on the KRAS G12C nucleotide (GDP-GTP) exchange reaction. In kind it is biochemical. As to conditions: Bodipy FL GDP-bound KRAS G12C 25 nM; preincubation at 25° C. for 4 hours; SOS1 100 nM, GppNHp 1 μM, reaction for 30 minutes. Summed up:
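Bodipy FL-GDP-loaded KRAS G12C (aa 1-169, 25 nM) preincubated with compound 4 h at 25 °C in pH 7.5 Tris buffer, 5% DMSO; exchange started with SOS1 (aa 564-1049, 100 nM) and 1 μM GppNHp for 30 min. Fluorescence change (ex 485/em 520 nm) normalized to DMSO and no-GppNHp controls; IC50 calculated.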
T1 sequence (P01116 1-169 isoform P01116-2 G12C): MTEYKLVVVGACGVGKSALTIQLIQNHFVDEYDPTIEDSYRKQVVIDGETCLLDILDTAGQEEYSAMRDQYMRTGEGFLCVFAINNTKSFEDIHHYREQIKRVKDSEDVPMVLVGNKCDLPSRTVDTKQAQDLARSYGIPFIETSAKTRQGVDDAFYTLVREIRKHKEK
As usually defined, the IC50 is the point on the concentration scale where inhibition reaches its midpoint. A high value points to weaker potency. `C=CC(=O)N1C[C@@H](COC)[C@@H](NC(=O)c2c(C)nc(CNc3n[nH]c4cc(Cl)c(C(C)(C)C)cc34)n2C)C1` [Example 67, N-((3R,4R)-1-acryloyl-4-(methoxymethyl)pyrrolidin-3-yl)-2-(((5-(tert-butyl)-6-chloro-1H-indazol-3-yl)amino)methyl)-1,4-dimethyl-1H-imidazole-5-carboxamide] came in with a concentration for half-maximal inhibition (IC50) of 24 nM. As to `C=CC(=O)N1CC(NC(=O)c2c(Cl)nc(CNc3n[nH]c4cc(Cl)c(C(C)(C)C)cc34)n2C2CCOCC2)C1` [Example 101, N-(1-acryloylazetidin-3-yl)-2-(((5-(tert-butyl)-6-chloro-1H-indazol-3-yl)amino)methyl)-4-chloro-1-(tetrahydro-2H-pyran-4-yl)-1H-imidazole-5-carboxamide], the midpoint of inhibition, the IC50, lay at 7 nM. With `C=CC(=O)N1CC(NC(=O)c2c(Cl)nc(CNc3n[nH]c4cc(Cl)c(C(C)C)cc34)n2C(C)C)C1` [Example 45, N-(1-acryloylazetidin-3-yl)-4-chloro-2-(((6-chloro-5-isopropyl-1H-indazol-3-yl)amino)methyl)-1-isopropyl-1H-imidazole-5-carboxamide] the figure was 24 nM; with `C=CC(=O)N1CC(NC(=O)c2c(C)nc(CNc3n[nH]c4cc(Cl)c(C(C)(C)C)cc34)n2C2CC2)C1` [Example 23, N-(1-acryloylazetidin-3-yl)-2-(((5-(tert-butyl)-6-chloro-1H-indazol-3-yl)amino)methyl)-1-cyclopropyl-4-methyl-1H-imidazole-5-carboxamide], 7 nM. `Cc1nc(CNc2n[nH]c3cc(Cl)c(C(C)(C)C)cc23)n(C(C)C)c1C(=O)NC1CN(C(=O)/C=C/CN2CCCCC2)C1` [Example 79, (E)-2-(((5-(tert-butyl)-6-chloro-1H-indazol-3-yl)amino)methyl)-1-isopropyl-4-methyl-N-(1-(4-(piperidin-1-yl)but-2-enoyl)azetidin-3-yl)-1H-imidazole-5-carboxamide]: inhibition was half-maximal at 122 nM (IC50). The same measure for `C=CC(=O)N1C[C@@H](C)[C@@H](NC(=O)c2c(C(F)F)nc(CNc3n[nH]c4cc(Cl)c(C(C)(C)C)cc34)n2C)C1` [Example 71, N-((3R,4R)-1-acryloyl-4-methylpyrrolidin-3-yl)-2-(((5-(tert-butyl)-6-chloro-1H-indazol-3-yl)amino)methyl)-4-(difluoromethyl)-1-methyl-1H-imidazole-5-carboxamide]: 117 nM; for `C=CC(=O)N1C[C@H](NC(=O)c2c(C)nc(CNc3n[nH]c4cc(Cl)c(C(C)(C)C)cc34)n2C)[C@H](OC)C1` [Example 61, N-((3S,4R)-1-acryloyl-4-methoxypyrrolidin-3-yl)-2-(((5-(tert-butyl)-6-chloro-1H-indazol-3-yl)amino)methyl)-1,4-dimethyl-1H-imidazole-5-carboxamide]: 210 nM; for `C=CC(=O)N1CC(NC(=O)c2c(Cl)nc(CNc3n[nH]c4cc(Cl)c(C(C)(C)C)cc34)n2C2CN(C(C)=O)C2)C1` [Example 108, 1-(1-acetylazetidin-3-yl)-N-(1-acryloylazetidin-3-yl)-2-(((5-(tert-butyl)-6-chloro-1H-indazol-3-yl)amino)methyl)-4-chloro-1H-imidazole-5-carboxamide]: 9 nM. The same measure for `C=CCN1CC[C@@H](n2c(CNc3n[nH]c4cc(Cl)c(C(C)(C)C)cc34)nc(Cl)c2C(=O)NC2CN(C(=O)C=C)C2)C1` [Example 123, (R)-N-(1-acryloylazetidin-3-yl)-1-(1-allylpyrrolidin-3-yl)-2-(((5-(tert-butyl)-6-chloro-1H-indazol-3-yl)amino)methyl)-4-chloro-1H-imidazole-5-carboxamide]: 9 nM; for `C=CC(=O)N1C[C@H](NC(=O)c2c(C(F)F)nc(CNc3n[nH]c4cc(Cl)c(C(C)(C)C)cc34)n2C)[C@@H](F)C1` [Example 70, N-((3S,4S)-1-acryloyl-4-fluoropyrrolidin-3-yl)-2-(((5-(tert-butyl)-6-chloro-1H-indazol-3-yl)amino)methyl)-4-(difluoromethyl)-1-methyl-1H-imidazole-5-carboxamide]: 79 nM; for `C=CC(=O)N1CC(N(C)C(=O)c2c(C)nc(CNc3n[nH]c4cc(Cl)c(C(C)(C)C)cc34)n2C)C1` [Example 49, N-(1-acryloylazetidin-3-yl)-2-(((5-(tert-butyl)-6-chloro-1H-indazol-3-yl)amino)methyl)-N,1,4-trimethyl-1H-imidazole-5-carboxamide]: 208 nM. The same measure for `C=CC(=O)N1C[C@@H](O)[C@@H](NC(=O)c2c(C)nc(CNc3n[nH]c4cc(Cl)c(C(C)(C)C)cc34)n2C)C1` [Example 56, N-((3S,4R)-1-acryloyl-4-hydroxypyrrolidin-3-yl)-2-(((5-(tert-butyl)-6-chloro-1H-indazol-3-yl)amino)methyl)-1,4-dimethyl-1H-imidazole-5-carboxamide]: 198 nM. `C=CC(=O)N1CC[C@@H](NC(=O)c2c(Cl)nc(CNc3n[nH]c4cc(Cl)c(C(C)(C)C)cc34)n2C)C1` [Example 73, (R)-N-(1-acryloylpyrrolidin-3-yl)-2-(((5-(tert-butyl)-6-chloro-1H-indazol-3-yl)amino)methyl)-4-chloro-1-methyl-1H-imidazole-5-carboxamide] displayed an IC50 of 52 nM. The compound `C=CC(=O)N1CC(NC(=O)c2c(C)nc(CNc3n[nH]c4cc(Cl)c(C(C)(C)C)cc34)n2C2CCCC2)C1` [Example 17, N-(1-acryloylazetidin-3-yl)-2-(((5-(tert-butyl)-6-chloro-1H-indazol-3-yl)amino)methyl)-1-cyclopentyl-4-methyl-JH-imidazole-5-carboxamide] came in with a 50% inhibitory concentration (IC50) of 17 nM. The same measure for `C=CC(=O)N1CC(NC(=O)c2c(Cl)nc(CNc3n[nH]c4cc(Cl)c(C(C)(C)C)cc34)n2C2CCCC2)C1` [Example 105, N-(1-acryloylazetidin-3-yl)-2-(((5-(tert-butyl)-6-chloro-1H-indazol-3-yl)amino)methyl)-4-chloro-1-cyclopentyl-1H-imidazole-5-carboxamide]: 8 nM. For `C=CC(=O)N1CC(NC(=O)c2c(Cl)nc(CNc3n[nH]c4cc(Cl)c(C(C)(C)C)cc34)n2[C@@H]2C[C@@H](O)[C@@H](O)C2)C1` [Example 99], the half-inhibitory concentration (IC50) came to 7 nM. With `C=CC(=O)N1CC(NC(=O)c2c(C)nc(CNc3n[nH]c4cc(Cl)c(C(C)(C)C)cc34)n2C(C)(C)C)C1` [Example 24, N-(1-acryloylazetidin-3-yl)-1-(tert-butyl)-2-(((5-(tert-butyl)-6-chloro-1H-indazol-3-yl)amino)methyl)-4-methyl-1H-imidazole-5-carboxamide] the figure was 35 nM; with `C=CC(=O)N1CC(NC(=O)c2c(C)nc(CNc3n[nH]c4cc(Cl)c(C(C)(C)C)cc34)n2C(C)CC)C1` (centres unmarked) [Example 20, N-(1-acryloylazetidin-3-yl)-1-(sec-butyl)-2-(((5-(tert-butyl)-6-chloro-1H-indazol-3-yl)amino)methyl)-4-methyl-1H-imidazole-5-carboxamide], 31 nM; with `C=CC(=O)N1CC(NC(=O)c2oc(CNc3n[nH]c4cc(Cl)c(C(C)(C)C)cc34)nc2C)C1` [Example 11, N-(1-acryloylazetidin-3-yl)-2-(((5-(tert-butyl)-6-chloro-1H-indazol-3-yl)amino)methyl)-4-methyloxazole-5-carboxamide], 1060 nM. Take `C=CC(=O)N1CC(NC(=O)c2c(C)nc(CNc3n[nH]c4cc(Cl)c(C(C)(C)C)cc34)n2C)C1` [Example 3, N-(1-acryloylazetidin-3-yl)-2-(((5-(tert-butyl)-6-chloro-1H-indazol-3-yl)amino)methyl)-1,4-dimethyl-1H-imidazole-5-carboxamide]: the 50% inhibitory concentration (IC50) stood at 9 nM. The same measure for `C=CC(=O)N1CC(NC(=O)c2c(Cl)nc(CNc3n[nH]c4cc(Cl)c(C(C)(C)C)cc34)n2C(C)C)C1` [Example 35, N-(1-acryloylazetidin-3-yl)-2-(((5-(tert-butyl)-6-chloro-1H-indazol-3-yl)amino)methyl)-4-chloro-1-isopropyl-1H-imidazole-5-carboxamide]: 8 nM. With `C=CC(=O)N1CC(NC(=O)c2c(C)nc(CNc3n[nH]c4cc(Cl)c(C(C)(C)C)cc34)n2C)C(F)(F)C1` (centres unmarked) [Example 53, N-(1-acryloyl-4,4-difluoropyrrolidin-3-yl)-2-(((5-(tert-butyl)-6-chloro-1H-indazol-3-yl)amino)methyl)-1,4-dimethyl-1H-imidazole-5-carboxamide] the figure was 42 nM. The compound `C=CC(=O)N1C[C@H](NC(=O)c2c(C)nc(CNc3n[nH]c4cc(Cl)c(C(C)(C)C)cc34)n2C)C2(CC2)C1` [Example 54, (R)-N-(5-acryloyl-5-azaspiro[2.4]heptan-7-yl)-2-(((5-(tert-butyl)-6-chloro-1H-indazol-3-yl)amino)methyl)-1,4-dimethyl-1H-imidazole-5-carboxamide] came in with an IC50 of 301 nM. Against the preceding compound, the IC50 is about 7.2-fold higher.

`C=CC(=O)N1CC(NC(=O)c2cnc(CNc3n[nH]c4cc(Cl)c(C=C)cc34)n2C)C1` [Example 38, N-(1-acryloylazetidin-3-yl)-2-(((6-chloro-5-vinyl 1H-indazol-3-yl)amino)methyl)-1-methyl-1H-imidazole-5-carboxamide] registered an IC50 of 2170 nM. Regarding `C=CC(=O)N1C[C@@H](NC(=O)c2c(C)nc(CNc3n[nH]c4cc(Cl)c(C(C)(C)C)cc34)n2C)[C@@H]1C` (relative stereo) [Example 59, N-(trans-1-acryloyl-2-methylazetidin-3-yl)-2-(((5-(tert-butyl)-6-chloro-1H-indazol-3-yl)amino)methyl)-1,4-dimethyl-1H-imidazole-5-carboxamide], the IC50 was found to be 85 nM. The same measure for `C=CC(=O)N1CC(NC(=O)c2csc(CNc3n[nH]c4cc(Cl)c(C(C)(C)C)cc34)n2)C1` [Example 7, N-(1-acryloylazetidin-3-yl)-2-(((5-(tert-butyl)-6-chloro-1H-indazol-3-yl)amino)methyl)thiazole-4-carboxamide]: 4260 nM.
